{"source": "patent US10144709B2", "about": "“Piperidine compounds, pharmaceutical composition comprising the same and its use” (SK BIOPHARMACEUTICALS CO., LTD., priority 2008, dated 2018)", "test_system": "ICR CD strain male mice", "assay": "Gastric emptying enhancing activity (phenol red meal)", "format": "in vivo", "conditions": "Mus musculus, ip, 0.25 h, 3.0 mg/kg i.p., gastric emptying at 15 min after test meal, increase vs vehicle", "procedure": "ICR CD strain male mice (body weight, 25˜30 g; 8 mice per one group) were fasted for 24 h but allowed free access to water until 3 hours before the test.\nCompounds to be tested for promoting GI motility were injected intraperitoneally or given orally at 30 min or 60 min prior to phenol red meal administration. Fifteen (15) min after administration of a test meal (0.5% Phenol red in 1.5% methylcellulose solution), mice were sacrificed and the stomach (pylorus˜cardia) was removed and collected to vial. The stomach was homogenized with its contents in 0.1N NaOH and the mixture was centrifuged (700*g) for 20 min. 2.5 mL of the supernatant was added to 0.25 mL of trichloroacetic acid solution (20% w/v) to precipitate proteins. After centrifuging (2600*g) for 20 min, 0.5 mL of the supernatant was added to 0.25 mL of 1N NaOH. The mixture was homogenized and its absorbance (Abs) was read at 560 nm.\nIn each experiment, one group was sacrificed just after the administration of the test meal and was considered as a standard (0% emptying). The gastric emptying (GE) at the 15 min period was calculated according to the following formula. GE (%)=(1−Abstest/Absstandard)×100 Increase (%)=(GE %test−GE %vehicle)/GE %vehicle*100", "note": "Where a name gives a salt, the structure may show the parent alone."}
{"smiles": "COc1cc(N)c(Cl)cc1C(=O)NCC1CCN(CCC(NC(=O)O)c2ccc(F)cc2)CC1", "note": "(stereo not drawn) [Example 54, [3-[4-[[(4-amino-5-chloro-2-methoxybenzoyl)amino]methyl]piperidin-1-yl]-1-(4-fluorophenyl)propyl]carbamate; hydrochloride]", "values": [{"measurement": "change in vivo at 3 mg/kg", "result": 89.2, "unit": "%"}]}
{"smiles": "COc1cc(N)c(Cl)cc1C(=O)NCC1CCN(CCC(NC(=O)O)c2ccccc2Cl)CC1", "note": "(stereo not drawn) [Example 56, [3-[4-[[(4-amino-5-chloro-2-methoxybenzoyl)amino]methyl]piperidin-1-yl]-1-(2-chlorophenyl)propyl]carbamate; hydrochloride]", "values": [{"measurement": "change in vivo at 3 mg/kg", "result": 135, "unit": "%"}]}
{"smiles": "COc1cc(N)c(Cl)cc1C(=O)NCC1CCN(CCC(NC(=O)O)c2cccc(Cl)c2Cl)CC1", "note": "(stereo not drawn) [Example 59, [3-[4-[[(4-amino-5-chloro-2-methoxybenzoyl)amino]methyl]piperidin-1-yl]-1-(2,3-dichlorophenyl)propyl]carbamate; hydrochloride]", "values": [{"measurement": "change in vivo at 3 mg/kg", "result": 48, "unit": "%"}]}
{"smiles": "COc1cc(N)c(Cl)cc1C(=O)NCC1CCN(CCC(NC(=O)O)c2ccc(Cl)cc2Cl)CC1", "note": "(stereo not drawn) [Example 60, [3-[4-[[(4-amino-5-chloro-2-methoxybenzoyl)amino]methyl]piperidin-1-yl]-1-(2,4-dichlorophenyl)propyl]carbamate; hydrochloride]", "values": [{"measurement": "change in vivo at 3 mg/kg", "result": 14.2, "unit": "%"}]}
{"smiles": "COc1cc(N)c(Cl)cc1C(=O)NCC1CCN(CCC(NC(=O)O)c2ccc(Cl)c(Cl)c2)CC1", "note": "(stereo not drawn) [Example 61, [3-[4-[[(4-amino-5-chloro-2-methoxybenzoyl)amino]methyl]piperidin-1-yl]-1-(3,4-dichlorophenyl)propyl]carbamate; hydrochloride]", "values": [{"measurement": "change in vivo at 3 mg/kg", "result": 44.3, "unit": "%"}]}
{"smiles": "COc1cc(N)c(Cl)cc1C(=O)NCC1CCN(CCC(NC(=O)O)c2ccc(C(C)C)cc2)CC1", "note": "(stereo not drawn) [Example 62, [3-[4-[[(4-amino-5-chloro-2-methoxybenzoyl)amino]methyl]piperidin-1-yl]-1-(4-isopropylphenyl)propyl]carbamate; hydrochloride]", "values": [{"measurement": "change in vivo at 3 mg/kg", "result": 17.9, "unit": "%"}]}
{"smiles": "COc1cccc(C(CCN2CCC(CNC(=O)c3cc(Cl)c(N)cc3OC)CC2)NC(=O)O)c1", "note": "(stereo not drawn) [Example 63, [3-[4-[[(4-amino-5-chloro-2-methoxybenzoyl)amino]methyl]piperidin-1-yl]-1-(3-methoxyphenyl)propyl]carbamate; hydrochloride]", "values": [{"measurement": "change in vivo at 3 mg/kg", "result": 24.4, "unit": "%"}]}
{"smiles": "COc1cc(N)c(Cl)cc1C(=O)NCC1CCN(CCC(Cc2ccc(F)cc2)NC(=O)O)CC1", "note": "(stereo not drawn) [Example 65, [4-[4-[[(4-amino-5-chloro-2-methoxybenzoyl)amino]methyl]piperidin-1-yl]-1-(4-fluorophenyl)butan-2-yl]carbamate; hydrochloride]", "values": [{"measurement": "change in vivo at 3 mg/kg", "result": 93.1, "unit": "%"}]}
{"smiles": "COc1cc(N)c(Cl)cc1C(=O)NCC1CCN(CC(O)COc2ccccc2)CC1", "note": "(stereo not drawn) [Example 71, 4-amino-5-chloro-N-[[1-(2-hydroxy-3-phenoxypropyl)piperidin-4-yl]methyl]-2-methoxybenzamide; hydrochloride]", "values": [{"measurement": "change in vivo at 3 mg/kg", "result": 63.7, "unit": "%"}]}
{"smiles": "COc1cc(N)c(Cl)cc1C(=O)NCC1CCN(CC(O)COc2ccc(F)cc2)CC1", "note": "(stereo not drawn) [Example 72, 4-amino-5-chloro-N-[[1-[3-(4-fluorophenoxy)-2-hydroxypropyl]piperidin-4-yl]methyl]-2-methoxybenzamide; hydrochloride]", "values": [{"measurement": "change in vivo at 3 mg/kg", "result": 48.1, "unit": "%"}]}
{"smiles": "COc1ccc(OCC(O)CN2CCC(CNC(=O)c3cc(Cl)c(N)cc3OC)CC2)cc1", "note": "(stereo not drawn) [Example 74, 4-amino-5-chloro-N-[[1-[2-hydroxy-3-(4-methoxyphenoxy)propyl]piperidin-4-yl]methyl]-2-methoxybenzamide; hydrochloride]", "values": [{"measurement": "change in vivo at 3 mg/kg", "result": 46.7, "unit": "%"}]}
{"smiles": "COc1cc(N)c(Cl)cc1C(=O)NCC1CCN(CC(O)COc2ccc(C(F)(F)F)cc2)CC1", "note": "(stereo not drawn) [Example 83, 4-amino-5-chloro-N-[[1-[2-hydroxy-3-[4-(trifluoromethyl)phenoxy]propyl]piperidin-4-yl]methyl]-2-methoxybenzamide; hydrochloride]", "values": [{"measurement": "change in vivo at 3 mg/kg", "result": 42.5, "unit": "%"}]}
{"smiles": "COc1cc(N)c(Cl)cc1C(=O)NCC1CCN(CC(COc2ccccc2)OC(=O)N2CCCCC2)CC1", "note": "(stereo not drawn) [Example 88, [1-[4-[[(4-amino-5-chloro-2-methoxybenzoyl)amino]methyl]piperidin-1-yl]-3-phenoxypropan-2-yl]piperidine-1-carboxylate; hydrochloride]", "values": [{"measurement": "change in vivo at 3 mg/kg", "result": 44.1, "unit": "%"}]}
{"smiles": "COc1cc(N)c(Cl)cc1C(=O)NCC1CCN(CC(COc2ccc(F)cc2)OC(=O)N2CC(C)CC(C)C2)CC1", "note": "(stereo not drawn) [Example 89, [1-[4-[[(4-amino-5-chloro-2-methoxybenzoyl)amino]methyl]piperidin-1-yl]-3-(4-fluorophenoxy)propan-2-yl]3,5-dimethylpiperidine-1-carboxylate; hydrochloride]", "values": [{"measurement": "change in vivo at 3 mg/kg", "result": 45.3, "unit": "%"}]}
{"smiles": "COc1cc(N)c(Cl)cc1C(=O)NCC1CCN(CC(COc2ccc(Cl)cc2Cl)NC(=O)O)CC1", "note": "(stereo not drawn) [Example 96, [1-[4-[[(4-amino-5-chloro-2-methoxybenzoyl)amino]methyl]piperidin-1-yl]-3-(2,4-dichlorophenoxy)propan-2-yl]carbamate; hydrochloride]", "values": [{"measurement": "change in vivo at 3 mg/kg", "result": 105, "unit": "%"}]}
{"smiles": "COc1cc(N)c(Cl)cc1C(=O)NCC1CCN(CC(COc2c(Cl)cccc2Cl)NC(=O)O)CC1", "note": "(stereo not drawn) [Example 98, [1-[4-[[(4-amino-5-chloro-2-methoxybenzoyl)amino]methyl]piperidin-1-yl]-3-(2,6-dichlorophenoxy)propan-2-yl]carbamate; hydrochloride]", "values": [{"measurement": "change in vivo at 3 mg/kg", "result": 63.6, "unit": "%"}]}
{"smiles": "COc1cc(N)c(Cl)cc1C(=O)NCC1CCN(CC(COc2ccc(Cl)c(Cl)c2)NC(=O)O)CC1", "note": "(stereo not drawn) [Example 99, [1-[4-[[(4-amino-5-chloro-2-methoxybenzoyl)amino]methyl]piperidin-1-yl]-3-(3,4-dichlorophenoxy)propan-2-yl]carbamate; hydrochloride]", "values": [{"measurement": "change in vivo at 3 mg/kg", "result": 47.5, "unit": "%"}]}
{"smiles": "COc1cc(N)c(Cl)cc1C(=O)NCC1CCN(CC(COc2ccc(C(F)(F)F)cc2)NC(=O)O)CC1", "note": "(stereo not drawn) [Example 100, [1-[4-[[(4-amino-5-chloro-2-methoxybenzoyl)amino]methyl]piperidin-1-yl]-3-[4-(trifluoromethyl)phenoxy]propan-2-yl]carbamate; hydrochloride]", "values": [{"measurement": "change in vivo at 3 mg/kg", "result": 46.1, "unit": "%"}]}
{"smiles": "COc1cc(N)c(Cl)cc1C(=O)NCC1CCN(CC(Cc2ccccc2)NC(=O)O)CC1", "note": "(stereo not drawn) [Example 103, [1-[4-[[(4-amino-5-chloro-2-methoxybenzoyl)amino]methyl]piperidin-1-yl]-3-phenylpropan-2-yl]carbamate; hydrochloride]", "values": [{"measurement": "change in vivo at 3 mg/kg", "result": 88.8, "unit": "%"}]}
{"smiles": "CC(C)n1c(=O)n(C(=O)NCC2CCN(CC(O)COc3ccccc3)CC2)c2ccccc21", "note": "(stereo not drawn) [Example 104, N-[[1-(2-hydroxy-3-phenoxypropyl)piperidin-4-yl]methyl]-2-oxo-3-propan-2-ylbenzimidazole-1-carboxamide; hydrochloride]", "values": [{"measurement": "change in vivo at 3 mg/kg", "result": 81, "unit": "%"}]}
{"smiles": "Cn1c(=O)n(C(=O)NCC2CCN(CC(O)COc3ccccc3)CC2)c2ccccc21", "note": "(stereo not drawn) [Example 111, N-[[1-(2-hydroxy-3-phenoxypropyl)piperidin-4-yl]methyl]-3-methyl-2-oxobenzimidazole-1-carboxamide; hydrochloride]", "values": [{"measurement": "change in vivo at 3 mg/kg", "result": 37.2, "unit": "%"}]}
{"smiles": "COc1ccc(OCC(CN2CCC(CNC(=O)n3c(=O)n(C(C)C)c4ccccc43)CC2)NC(=O)O)cc1", "note": "(stereo not drawn) [Example 121, [1-(4-methoxyphenoxy)-3-[4-[[(2-oxo-3-propan-2-ylbenzimidazole-1-carbonyl)amino]methyl]piperidin-1-yl]propan-2-yl]carbamate; hydrochloride]", "values": [{"measurement": "change in vivo at 3 mg/kg", "result": 46.8, "unit": "%"}]}
{"smiles": "CC(C)n1c(=O)n(C(=O)NCC2CCN(CC(COc3ccc(F)cc3)NC(=O)O)CC2)c2ccccc21", "note": "(stereo not drawn) [Example 122, [1-(4-fluorophenoxy)-3-[4-[[(2-oxo-3-propan-2-ylbenzimidazole-1-carbonyl)amino]methyl]piperidin-1-yl]propan-2-yl]carbamate; hydrochloride]", "values": [{"measurement": "change in vivo at 3 mg/kg", "result": 6.8, "unit": "%"}]}
{"smiles": "Cc1ccccc1OCC(CN1CCC(CNC(=O)n2c(=O)n(C(C)C)c3ccccc32)CC1)NC(=O)O", "note": "(stereo not drawn) [Example 123, [1-(2-methylphenoxy)-3-[4-[[(2-oxo-3-propan-2-ylbenzimidazole-1-carbonyl)amino]methyl]piperidin-1-yl]propan-2-yl]carbamate; hydrochloride]", "values": [{"measurement": "change in vivo at 3 mg/kg", "result": 56.8, "unit": "%"}]}
{"smiles": "Cn1c(=O)n(C(=O)NCC2CCN(CC(COc3ccccc3)NC(=O)O)CC2)c2ccccc21", "note": "(stereo not drawn) [Example 126, [1-[4-[[(3-methyl-2-oxobenzimidazole-1-carbonyl)amino]methyl]piperidin-1-yl]-3-phenoxypropan-2-yl]carbamate; hydrochloride]", "values": [{"measurement": "change in vivo at 3 mg/kg", "result": 93.3, "unit": "%"}]}
{"smiles": "O=C(NCC1CCN(CCC(O)c2ccccc2)CC1)n1c(=O)n(C2CC2)c2ccccc21", "note": "(stereo not drawn) [Example 135, 3-cyclopropyl-N-[[1-(3-hydroxy-3-phenylpropyl)piperidin-4-yl]methyl]-2-oxobenzimidazole-1-carboxamide; hydrochloride]", "values": [{"measurement": "change in vivo at 3 mg/kg", "result": 90.3, "unit": "%"}]}
{"smiles": "CC(C)n1c(=O)n(C(=O)NCC2CCN(CCC(O)c3ccccc3)CC2)c2ccccc21", "note": "(stereo not drawn) [Example 136, N-[[1-(3-hydroxy-3-phenylpropyl)piperidin-4-yl]methyl]-2-oxo-3-propan-2-ylbenzimidazole-1-carboxamide; hydrochloride]", "values": [{"measurement": "change in vivo at 3 mg/kg", "result": 64.1, "unit": "%"}]}
